Series [1] in a line: Release profile (cumulative fraction released) of a memantine and dihydroergotamine combination, USP II Paddle system, water. Type of series: physicochemical. An excerpt:
The cumulative fraction is the amount of drug substance released from the formulation matrix to the serum or gut environment (e.g., U.S. Pat. No. 4,839,177) or as measured with a USP II Paddle system using water as the dissolution medium.

The conditions of series [2]: head of release table, Example 3; cited from earlier work.
For series [3] the following is noted: humans; cited from earlier work.

On to `CN1C[C@H](C(=O)N[C@]2(C)O[C@@]3(O)[C@@H]4CCCN4C(=O)[C@H](Cc4ccccc4)N3C2=O)C[C@@H]2c3cccc4[nH]cc(c34)C[C@H]21` [DIHYDROERGOTAMINE, dihydroergotamine], for which the cum. fraction in series [1] (Time 1) stood at 0.15; in series [1] (Time 2), 0.30; in series [1] (Time 4) it was 0.45; in series [1] (Time 8) it was 0.60; in series [1] (Time 12) it was 0.75; in series [1] (Time 16), 0.90. The cum. fraction is 0.98 in series [1] (Time 20) and 0.99 in series [1] (Time 24). Further, in series [2], the T½ entry is “T½ = 15 hrs”.

In the case of `CC12CC3CC(C)(C1)CC(N)(C3)C2` [Memantine, 1-amino-3,5-dimethyladamantane], the cum. fraction was 0.15 in series [1] (Time 1); 0.30 in series [1] (Time 2); 0.45 in series [1] (Time 4); 0.60 in series [1] (Time 8); 0.75 in series [1] (Time 12); 0.90 in series [1] (Time 16). Besides, the cum. fraction in series [1] (Time 20) was determined as 0.98; in series [1] (Time 24), 0.99.

Consider `CC(N)C12CC3CC(CC(C3)C1)C2` (stereo not drawn) [Rimantadine, 1-(1-aminoethyl)adamantane], for which the “Dose Dependent Tox” value in series [3] is “Insomnia”.

(Values after patent US20100029665A1, “Methods and Compositions for Treating Migraine Pain” (priority 2004, published 2010).)
